Assay results reported in ChEMBL document CHEMBL1127807 (J Med Chem, 1994).

What was measured:
Mu-type opioid receptor = Mu-type opioid receptor (Cavia porcellus, UniProt P97266); assay: Tested for the binding affinity against the Mu opioid receptor in guinea pig brain using [3H]-DAMGO
[1] = biological target: Opioid receptors; mu/kappa/delta (Homo sapiens, UniProt P41145+P41143+P35372); assay: Tested for the binding affinity against the opioid receptor in guinea pig brain using [3H]bremazocine; parameters: species or system Cavia porcellus; conditions: target entry is the homologue from another species
[2] = biological target: Kappa-type opioid receptor (Cavia porcellus, UniProt P41144); assay: Tested for the binding affinity against the Kappa opioid receptor in guinea pig brain using [3H]U-69593
Kappa-type opioid receptor, sequence (P41144 whole entry): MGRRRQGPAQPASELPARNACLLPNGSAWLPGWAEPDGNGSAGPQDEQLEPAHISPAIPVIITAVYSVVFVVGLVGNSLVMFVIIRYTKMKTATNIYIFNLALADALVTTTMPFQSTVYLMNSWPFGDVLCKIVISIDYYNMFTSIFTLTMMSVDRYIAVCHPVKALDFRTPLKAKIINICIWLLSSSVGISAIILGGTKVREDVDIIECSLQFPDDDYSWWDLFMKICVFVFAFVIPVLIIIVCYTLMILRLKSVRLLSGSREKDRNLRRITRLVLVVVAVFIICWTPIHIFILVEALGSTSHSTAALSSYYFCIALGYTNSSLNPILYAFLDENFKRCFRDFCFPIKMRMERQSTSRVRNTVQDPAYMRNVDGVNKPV

Mu-type opioid receptor, sequence (P97266 whole entry): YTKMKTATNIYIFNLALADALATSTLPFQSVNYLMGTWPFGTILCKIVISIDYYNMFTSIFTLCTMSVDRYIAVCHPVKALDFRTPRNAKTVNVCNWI

For `Oc1ccc2c3c1OC1[C@@H](OCc4ccc5ccccc5c4)CCC4(O)C(C2)N(CC2CC2)CCC314` (some centres not stated), the IC50 (Mu-type opioid receptor) was 1.2 nM, the IC50 [1] was 4.7 nM and the IC50 [2] was 1.4 nM.
For `Oc1ccc2c3c1OC1[C@@H](OCc4cccc5ccccc45)CCC4(O)C(C2)N(CC2CC2)CCC314` (some centres not stated), the IC50 (Mu-type opioid receptor) was 1 nM, the IC50 [1] was 7.3 nM and the IC50 [2] was 4.4 nM.
`Oc1ccc2c3c1OC1[C@@H](OCc4ccc(-c5ccccc5)cc4)CCC4(O)C(C2)N(CC2CC2)CCC314` (some centres not stated) was tested, and the IC50 (Mu-type opioid receptor) was 10 nM, the IC50 [1] was 28 nM and the IC50 [2] was 12 nM.
`Oc1ccc2c3c1OC1[C@@H](OCc4ccccc4)CCC4(O)C(C2)N(CC2CC2)CCC314` (some centres not stated) showed an IC50 (Mu-type opioid receptor) of 0.3 nM, an IC50 [1] of 1.5 nM and an IC50 [2] of 0.6 nM.
With `Oc1ccc2c3c1OC1[C@@H](OCc4c5ccccc5cc5ccccc45)CCC4(O)C(C2)N(CC2CC2)CCC314` (some centres not stated) the IC50 (Mu-type opioid receptor) was 6.6 nM, the IC50 [1] was 45 nM and the IC50 [2] was 34 nM.
For `Oc1ccc2c3c1OC1[C@H](OCc4ccc5ccccc5c4)CCC4(O)C(C2)N(CC2CC2)CCC314` (some centres not stated), the IC50 (Mu-type opioid receptor) was 1.7 nM, the IC50 [1] was 5 nM and the IC50 [2] was 1.5 nM.
With `Oc1ccc2c3c1OC1[C@H](OCc4ccc(-c5ccccc5)cc4)CCC4(O)C(C2)N(CC2CC2)CCC314` (some centres not stated) the IC50 (Mu-type opioid receptor) was 0.7 nM, the IC50 [1] was 3.3 nM and the IC50 [2] was 1.5 nM.
For `Oc1ccc2c3c1OC1[C@H](OCc4ccccc4)CCC4(O)C(C2)N(CC2CC2)CCC314` (some centres not stated), the IC50 (Mu-type opioid receptor) was 2.4 nM, the IC50 [1] was 3.4 nM and the IC50 [2] was 2 nM.
`Oc1ccc2c3c1OC1[C@H](OCc4c5ccccc5cc5ccccc45)CCC4(O)C(C2)N(CC2CC2)CCC314` (some centres not stated) showed an IC50 (Mu-type opioid receptor) of 16 nM, an IC50 [1] of 71 nM and an IC50 [2] of 27 nM.
With `Oc1ccc2c3c1OC1[C@H](OCc4cccc5ccccc45)CCC4(O)C(C2)N(CC2CC2)CCC314` (some centres not stated) the IC50 (Mu-type opioid receptor) was 3.1 nM, the IC50 [1] was 11 nM and the IC50 [2] was 6.1 nM.
Compound `O=C(COC1CCC2(O)C3Cc4ccc(O)c5c4C2(CCN3CC2CC2)C1O5)C1[C@H]2C[C@@H]3C[C@@H](C[C@H]1C3)C2` (some centres not stated) has an IC50 (Mu-type opioid receptor) of 6.6 nM, an IC50 [1] of 13 nM and an IC50 [2] of 3.3 nM.
`Oc1ccc2c3c1O[C@H]1[C@H](O)CC[C@@]4(O)[C@@H](C2)N(CC2CC2)CC[C@]314` (stereo in doubt; 6) showed an IC50 (Mu-type opioid receptor) of 1.1 nM and an IC50 [2] of 2.6 nM.
Work on `Oc1ccc2c3c1O[C@H]1[C@H](O)CC[C@@]4(O)[C@@H](C2)N(CC2CC2)CC[C@]314` (stereo in doubt; 7) yielded an IC50 (Mu-type opioid receptor) of 0.5 nM and an IC50 [2] of 1.8 nM.
